Measured values taken from patent US20210371385A1, “POLYMORPHIC AND AMORPHOUS FORMS OF ISOQUINOLINONE AND METHODS OF USE THEREOF” (Sojournix, Inc., priority 2018, published 2021).
Converted amounts (≈) assume the structure as drawn. “And” between values parts separate entries of the source, which are not always exact repeats. Identical values can stand only once. “Also recorded” adds a separate entry of the source.

Legend:
Type in all cases: physicochemical
[1] = Solubility in water and simulated fluids (FaSSIF, FaSSGF) at 37 °C; settings: for Solubility / solubility at 24 h: 37 °C; for Solubility in FaSSIF: fasted state simulated intestinal fluid; for solubility at 24 h: thermodynamic from solid
From the text: The solids were slurried in the respective solution for 24 hrs then the liquid isolated by syringe filtration for analysis by HPLC. The data are summarized in Table 19; the solubility of all forms in all solutions is on the microgram scale. Essentially, none of these are substantially advantageous over the other ones in terms of equilibrium solubility.

[2] = Stability in high humidity (40 °C/75% RH, XRPD); settings: one week
Method: Patterns α (L100142-37-5), β (L100142-1-1) and free flowing amorphous solid (L100142-19-1) SJB-01 were exposed to a 40° C./75% RH environment for one week.

[3] = Solid form stability at ambient conditions by XRPD; settings: for Solid form stability: ambient conditions / room temperature, XRPD
[4] = Dynamic vapor sorption (DVS)
Method: Pattern β was analyzed using DVS with two sorption/desorption cycles. The solid reversibly picked-up about 0.12% between 2-95% relative humidity at 25° C.
Dynamic Vapor Sorption (DVS) was done using a DVS Intrinsic 1. The sample is loaded into a sample pan and suspended from a microbalance. A typical sample mass for DVS measurement is 25 mg. Nitrogen gas bubbled through distilled water provides the desired relative humidity. A typical measurement comprises the steps:
2. 50% to 2%. (50%, 40%, 30%, 20%, 10% and 2%)-Hold minimum of 5 mins and maximum of 60 minutes at each humidity. The pass criteria is less than 0.002% change.
3. 2% to 95% (2%, 10%, 20%, 30%, 40%, 50%, 60%, 70%, 80%, 90%, 95%)-Hold minimum of 5 mins and maximum of 60 minutes at each humidity. The pass criteria is less than 0.002% change.
4. 95% to 2% (95%, 80%, 70%, 60%, 50%, 40%, 30%, 20%, 10%, 2%)-Hold minimum of 5 mins and maximum of 60 minutes at each humidity. The pass criteria is less than 0.002% change.
5. 2% to 50% (2%, 10%, 20%, 30%, 40%, 50%)-Hold minimum of 5 mins and maximum of 60 minutes at each humidity. The pass criteria is less than 0.002% change.

[5] = Thermodynamic equilibrium aqueous solubility; settings: pH 7.4
[6] = Solubility in vehicles/excipients for in vivo and toxicological studies; settings: for Maximum single dose in solubilized form: dogs, 100% PEG 400, maximum volume 1-2 ml/kg; for Maximum dose in solubilized form, 100% PEG 400 / Maximum dose in solubilized form, Gelucire:PEG 400 90:10: rats; for Maximum dose in solubilized form, 100% PEG 400: 5 ml/kg is maximum volume dose; for Maximum dose in solubilized form, Gelucire:PEG 400 90:10: 10 ml/kg is maximum volume dose
Method: In addition, the solubility of SJB-01 was investigated in a large number of vehicles for use in in vivo pharmacological studies, as well as toxicological evaluation of the compound.
Formulations for toxicological evaluation of SJB-01 were considered. The highest solubility was obtained with 100% PEG 400 and a mixture of Gelucire and PEG 400. Since a formulation with Gelucire:PEG required increased handling time, including dosing at ˜45° C., 100% PEG 400 was chosen for formulation purpose in the early toxicological evaluation including mini-MTD (maximum tolerated dose) and a 14 days toxicological dosing study. The maximum dose reached was 140 mg/kg-the highest possible dose achievable with PEG 400 as vehicle. […] From a formulation perspective, this can only be done by using Gelucire:PEG as a vehicle, under the assumption that a solution will lead to a higher bioavailability than dosing the compound in a PEG 400 suspension. In the table below, the maximum dose of SJB-01 given on a solubilized form is provided, taking into account the tolerated dose of the vehicle as well.

[7] = Solubility in bio-relevant media
Method: The solubility of the beta polymorph form of SJB-01 was further examined in bio-relevant media. The fasted-state small intestinal fluid (FaSSIF) contained 3 mM sodium taurocholate (bile acid), 0.75 mM lecithin (phosphorlipid) and phosphate buffer to maintain a pH of 6.0. The fed-state small intestinal fluid (FeSSIF) contained 5-fold higher concentration of sodium taurocholate and lecithin and thus higher capacity for micellar solubilization of the compound. The pH in the FeSSIF buffer was maintained to 5.0 with acetate buffer.

[8] = Intrinsic Dissolution Rate (IDR); settings: 0.001 M HCl pH 3.0; pressed tablet
Method: The Intrinsic Dissolution Rate (IDR) was calculated for a beta polymorph form of SJB-01. A tablet of the compound was pressed and put into a dissolution chamber. It was subsequently measured how fast the substance was dissolved from the surface into the solvent. Initially, the experiment was performed in a standard buffer (0.001 M HCl pH 3.0), reflecting the stomach conditions at fastened state.
Due to the high impact of bile components on solubilisation of SJB-01, IDR was performed in FeSSIF media, reflecting the fed-state in humans.

[9] = Solubility in buffered solutions vs pH at 37 °C (HPLC); settings: aqueous buffers, aqueous buffer, thermodynamic from solid; about 37 °C; read-out: Solubility in buffered solution (range)
Method: Aqueous buffers between pH 1.3 and 7.4 (13 total) were prepared and 3 mL added to about 15 mg of SJB-01 (L100149-44-1, jet-milled). These slurries were stirred on a hot-plate at 37° C. for 24 hours. Sonication and vortexting was employed within the first 2 hours of stirring to ensure thorough mixing and wetting of the solids as there was a clear tendency for them to clump and float at the liquid surface. After sonication and vortexing there was substantial solids suspended in solution (slurry) along with the solids that floated on top. At 24 hours, the samples were collected by syringe filtration of about 2 mL of solution. The first 1 mL of solution that passed through the filter was discarded and the second 0.5-1 mL of solution was used for HPLC analysis. The samples were injected into HPLC without dilution.
SJB-01 (L100149-44-1) was weighed directly into volumetric flasks and filled to volume with ACN:water (6:4 vol.) to build a calibration curve. […] Details for the HPLC method used are given in Table 34; these follow the parameters used for previous dissolution study.

[10] = about 37 °C, listed as amorphous form
[11] = about 37 °C, listed as beta form

CCNn1c(C)c(C(=O)N[C@H](c2ccccc2)C2CC2)c2cccc(F)c2c1=O [Amorphous, 2-ethylamino-8-fluoro-3-methyl-1-oxo-1,2-dihydro-isoquinoline-4-carboxylic acid ((S)-cyclopropyl-phenyl-methyl)-amide]
Solubility ([1]; FaSSGF, 24 hrs): 6 µg/mL (≈ 15.2 µM) | Solubility ([1]; FaSSIF, 24 hrs): 18 µg/mL (≈ 45.7 µM) | Solubility ([1]; Water, 24 hrs): 5 µg/mL (≈ 12.7 µM) | Solubility in water and simulated fluids (range) [1, 10]: 5 to 18 µg/mL | Solubility in FaSSGF ([1]; fasted state simulated gastric fluid, about 37 °C, listed as amorphous form): 6 µg/mL (≈ 15.2 µM) | Solubility in FaSSIF [1, 10]: 18 µg/mL (≈ 45.7 µM) | Solubility in water ([1]; water, about 37 °C, listed as amorphous form): 5 µg/mL (≈ 12.7 µM) | Solid form by XRPD after humidity exposure ([2]; listed as amorphous solid): converted considerably to Pattern β | Solid form stability ([3]; listed as powdered amorphous freebase): still showed an amorphous pattern | Time amorphous form remained stable ([3]; ambient environment): at least 17 days

CCNn1c(C)c(C(=O)N[C@H](c2ccccc2)C2CC2)c2cccc(F)c2c1=O [Pattern α, 2-ethylamino-8-fluoro-3-methyl-1-oxo-1,2-dihydro-isoquinoline-4-carboxylic acid ((S)-cyclopropyl-phenyl-methyl)-amide]
Moisture pick-up by DVS ([4]; 2-95% relative humidity, 25 °C): about 0.6% | Solubility ([1]; FaSSGF, 24 hrs): 7 µg/mL (≈ 17.8 µM) | solubility at 24 h ([1]; FaSSGF, fassgf or other biorelevant, fasted state simulated gastric fluid, about 37 °C, read-out: Solubility in FaSSGF): 7 µg/mL (≈ 17.8 µM) | Solubility ([1]; FaSSIF, 24 hrs): 8 µg/mL (≈ 20.3 µM) | Solubility in FaSSIF ([1]; about 37 °C, listed as alpha form): 8 µg/mL (≈ 20.3 µM) | solubility at 24 h ([1]; water, water, water, about 37 °C, read-out: Solubility in water): 6 µg/mL (≈ 15.2 µM) | solubility at 24 h ([1]; water, FaSSIF and FaSSGF, about 37 °C, read-out: Solubility in water and simulated fluids (range)): 6 to 8 µg/mL (≈ 15.2 to 20.3 µM) | Solid form by XRPD after humidity exposure [2]: converted considerably to Pattern β | Solid form stability [3]: not stable; also recorded: less stable than Pattern β | solubility thermodynamic ([5]; aqueous medium, aqueous buffer, thermodynamic from solid): ~14 µg/mL (≈ 35.6 µM) | Solubility in 100% PEG 400 [6]: 32 mg base/ml | Solubility in Gelucire:PEG 400 90:10 [6]: 40 mg base/ml | Maximum single dose in solubilized form ([6]; listed as α-form): 28 to 56 mg/kg | Maximum dose in solubilized form, 100% PEG 400 ([6]; listed as α-form): 140 mg/kg | Maximum dose in solubilized form, Gelucire:PEG 400 90:10 ([6]; listed as α-form): 360 mg/kg

CCNn1c(C)c(C(=O)N[C@H](c2ccccc2)C2CC2)c2cccc(F)c2c1=O [Pattern β, 2-ethylamino-8-fluoro-3-methyl-1-oxo-1,2-dihydro-isoquinoline-4-carboxylic acid ((S)-cyclopropyl-phenyl-methyl)-amide]
Hygroscopicity ([4]; DVS, two sorption/desorption cycles): not hygroscopic | solubility at 24 h ([1]; FaSSGF (fasted state simulated gastric fluid), fassgf or other biorelevant, FaSSGF, 24 hrs, read-out: Solubility): 6 µg/mL (≈ 15.2 µM) | Solubility ([1]; FaSSIF, 24 hrs): 8 µg/mL (≈ 20.3 µM) | Solubility in water and simulated fluids (range) [1, 11]: 5 to 8 µg/mL and 6 to 10 µg/mL | Solubility in FaSSIF [1, 11]: 8 µg/mL (≈ 20.3 µM) | solubility at 24 h ([1]; water, water, Water, 24 hrs, read-out: Solubility): 5 µg/mL (≈ 12.7 µM) | Solid form by XRPD after humidity exposure [2]: remained unchanged | Solid form stability [3]: most stable polymorph | Thermodynamic equilibrium solubility [5]: ~8 μg base/ml | Solubility in 100% PEG 400 [6]: 22 mg base/ml | Solubility in Gelucire:PEG 400 90:10 [6]: 26 mg base/ml | Maximum single dose in solubilized form ([6]; listed as β-form): 20 to 40 mg/kg | Maximum dose in solubilized form, 100% PEG 400 ([6]; listed as β-form): 100 mg/kg | Maximum dose in solubilized form, Gelucire:PEG 400 90:10 ([6]; listed as β-form): 230 mg/kg | Solubility in bio-relevant media ([7]; 0.001M HCl pH 3.0): 8 μg base/ml | Solubility in bio-relevant media ([7]; FaSSIF, pH 6.0): 11 μg base/ml | Solubility in bio-relevant media ([7]; FeSSIF, pH 5.0): 19 μg base/ml | Intrinsic Dissolution Rate (IDR) [8]: 0.002 mg/cm^2·min | solubility at 24 h [9]: 6.4 to 9.8 µg/mL (≈ 16.3 to 24.9 µM)
